Counter-ions that a name gives are not always drawn. Like-named read-outs stand apart in the source and are kept apart here. A value given as a limit tells only on which side of the number the result lay.

The target of test [1] is IRAK1 (His-TEV-IRAK1 (194-712)) (Homo sapiens (Human), UniProt P51617). Nature of the test: IRAK1 enzymatic assay. Type of test: biochemical. Put shortly: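 Compounds ([…] down to 1 nM) were incubated 3 h at 30° C with His-TEV-IRAK1 (194-712, 15 ng/well) and 1 μM [33P]-labelled ATP in 50 mM Hepes pH 7.0, 10 mM MgCl2. After EDTA stop and washing, the retained autophosphorylation signal was measured by scintillation in streptavidin-coated plates.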
Sequence of IRAK1 (His-TEV-IRAK1 (194-712)) (P51617 194-712): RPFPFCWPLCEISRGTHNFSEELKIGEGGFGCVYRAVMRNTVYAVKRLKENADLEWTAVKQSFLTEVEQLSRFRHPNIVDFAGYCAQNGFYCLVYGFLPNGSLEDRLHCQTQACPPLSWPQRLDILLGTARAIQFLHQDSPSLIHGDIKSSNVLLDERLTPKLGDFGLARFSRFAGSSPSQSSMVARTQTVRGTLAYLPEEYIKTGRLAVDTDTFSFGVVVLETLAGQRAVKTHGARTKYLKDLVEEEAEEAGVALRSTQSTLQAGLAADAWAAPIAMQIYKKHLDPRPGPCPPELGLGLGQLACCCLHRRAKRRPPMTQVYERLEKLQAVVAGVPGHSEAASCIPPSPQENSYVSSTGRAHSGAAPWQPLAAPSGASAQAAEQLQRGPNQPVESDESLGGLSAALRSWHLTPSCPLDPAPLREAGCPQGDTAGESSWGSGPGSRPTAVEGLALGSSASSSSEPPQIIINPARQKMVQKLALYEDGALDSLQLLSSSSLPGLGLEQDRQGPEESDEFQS

Test [2] deals with IRAK4 (Homo sapiens (Human), UniProt Q9NWZ3). The test is described as follows: IRAK4 enzymatic assay. Type of test: biochemical. The method in brief: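 Radiometric streptavidin FlashPlate read: 3 h, 30° C incubation of His-TEV-IRAK4 (20 ng/well), STK1-biotin substrate (300 nM) and ATP (2 μM, [^33P]-labelled) in Hepes pH 7.0, MgCl2 10 mM, MnCl2 5 mM. Compounds from 20 µM down to 1 nM, 2% DMSO controls; reaction quenched with EDTA.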
Sequence of IRAK4 (Q9NWZ3 whole entry): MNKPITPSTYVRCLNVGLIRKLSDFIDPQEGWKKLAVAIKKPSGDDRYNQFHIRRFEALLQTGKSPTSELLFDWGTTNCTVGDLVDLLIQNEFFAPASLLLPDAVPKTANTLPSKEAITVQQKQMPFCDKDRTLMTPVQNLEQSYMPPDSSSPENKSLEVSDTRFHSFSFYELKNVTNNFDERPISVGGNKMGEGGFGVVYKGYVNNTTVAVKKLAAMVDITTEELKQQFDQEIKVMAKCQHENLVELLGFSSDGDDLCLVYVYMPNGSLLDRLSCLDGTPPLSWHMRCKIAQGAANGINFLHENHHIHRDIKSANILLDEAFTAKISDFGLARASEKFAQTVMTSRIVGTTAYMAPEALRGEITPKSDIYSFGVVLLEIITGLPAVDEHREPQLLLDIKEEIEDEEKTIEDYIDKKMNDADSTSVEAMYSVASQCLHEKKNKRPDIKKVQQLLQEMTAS

The subject of test [3] is TLR7 induced IL-6 secretion in human mononuclear cells (PBMC's). The test is described as follows: TLR7 induced IL-6 in human PBMC's. To be noted: read-out: TLR7 induced IL-6 secretion in hPBMC's (IC50). The class given is cell-based. The method in brief: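 Fresh or frozen healthy-donor PBMCs preincubated 30 min at 37° C. with compound (25 uM to 0.4 nM; vehicle 0.25% DMSO) in RPMI/10% HI-FBS. Stimulated with TLR7 ligand (2 uM) for 16-18 h at 37° C.; supernatant IL-6 measured by AlphaLISA.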

On to `CC(C)Nc1nc(-c2cccc(-c3cnn(C)c3)c2)ncc1-c1cnn(C)c1` [Example 260], for which the IC50 in test [1] is 100 to 1000 nM; in test [2], 100 to 1000 nM; in test [3] (Homo sapiens, PBMC), 1000 to 5000 nM.

On to `Cn1cc(-c2cccc(-c3ncc(-c4cnn(C)c4)c(NCC4CCC(F)(F)CC4)n3)c2)cn1` [Example 136], for which the IC50 is 100 to 1000 nM in test [1]; < 100 nM in test [2]; 1000 to 5000 nM in test [3] (Homo sapiens, PBMC).

For the molecule `Cn1cc(-c2cccc(-c3ncc(-c4cnn(C)c4)c(NCCCCO)n3)c2)cn1` [Example 101], the half-inhibitory concentration (IC50) is 1000 to 5000 nM in test [1]; < 100 nM in test [2]; 100 to 1000 nM in test [3] (Homo sapiens, PBMC).

For `Cn1cc(-c2cccc(-c3ncc(-c4cnn(C)c4)c(N[C@H]4CCC[C@H](O)C4)n3)c2)cn1` (racemic) [Example 162], the concentration for half-maximal inhibition (IC50) in test [1] is 100 to 1000 nM; in test [2], < 100 nM; in test [3] (Homo sapiens, PBMC), 100 to 1000 nM.

Consider `Cn1cc(-c2cccc(-c3ncc(-c4cnn(C)c4)c(N[C@H]4CC[C@H](N)CC4)n3)c2)cn1` [Example 143], for which the half-inhibitory concentration (IC50) was 100 to 1000 nM in test [1]; < 100 nM in test [2]; 100 to 1000 nM in test [3] (Homo sapiens, PBMC).

With `Cn1cc(-c2cccc(-c3ncc(-c4cnn(C)c4)c(N[C@H]4CCC[C@@H](O)C4)n3)c2)cn1` (racemic) [Example 161], the IC50 in test [1] is < 100 nM; in test [2], < 100 nM; in test [3] (Homo sapiens, PBMC) it was 100 to 1000 nM.

Regarding `Cn1cc(-c2cccc(-c3ncc(-c4cnn(C)c4)c(N[C@H]4CC[C@H](N)C4)n3)c2)cn1` [Example 185], the IC50 is 1000 to 5000 nM in test [1]; < 100 nM in test [2]; 1000 to 5000 nM in test [3] (Homo sapiens, PBMC).

Take `CC(C)Nc1cc(-c2cccc(-c3cnn(C)c3)c2)ncc1-c1nnc(C(=O)N2CC[C@@H](O)C2)s1` [Example 21, ((R)-3-Hydroxy-pyrrolidin-1-yl)-(5-{4-isopropylamino-6-[3-(1-methyl-1H-pyrazol-4-yl)-phenyl]-pyridin-3-yl}-[1,3,4]thiadiazol-2-yl)-methanone]: the IC50 in test [1] was 1000 to 5000 nM; in test [2] it was < 100 nM; in test [3] (Homo sapiens, PBMC) it was 1000 to 5000 nM.

For the molecule `Cn1cc(-c2cccc(-c3ncc(-c4cnn(C)c4)c(N[C@H]4CC[C@H](NS(C)(=O)=O)CC4)n3)c2)cn1` [Example 182], the IC50 in test [1] is < 100 nM; in test [2] it was < 100 nM; in test [3] (Homo sapiens, PBMC) it was 100 to 1000 nM.

For the molecule `Cn1cc(-c2cccc(-c3ncc(-c4cnn(C)c4)c(NC45CCC(N)(CC4)CC5)n3)c2)cn1` [Example 186], the half-maximal inhibitory concentration (IC50) was < 100 nM in test [1]; < 100 nM in test [2]; 100 to 1000 nM in test [3] (Homo sapiens, PBMC).

As for `Cn1cc(-c2cccc(-c3ncc(-c4ccn(C)n4)c(NCCCCO)n3)c2)cn1` [Example 97], the 50% inhibitory concentration (IC50) in test [1] is 100 to 1000 nM; in test [2], < 100 nM; in test [3] (Homo sapiens, PBMC) it was 1000 to 5000 nM.

For the molecule `Cn1cc(-c2cccc(-c3ncc(-c4cnn(C)c4)c(OCC4(C)COC4)n3)c2)cn1` [Example 9, 4-(3-Methyl-oxetan-3-ylmethoxy)-5-(1-methyl-1H-pyrazol-4-yl)-2-[3-(1-methyl-1H-pyrazol-4-yl)-phenyl]-pyrimidine], the IC50 in test [1] was 1000 to 5000 nM; in test [2], 100 to 1000 nM; in test [3] (Homo sapiens, PBMC), 1000 to 5000 nM.

Take `Cc1nnc(-c2cnc(-c3cccc(-c4cnn(C)c4)c3)nc2NC2CCS(=O)(=O)CC2)s1` [Example 243]: the IC50 in test [1] was 1000 to 5000 nM; in test [2] it was < 100 nM; in test [3] (Homo sapiens, PBMC) it was 100 to 1000 nM.

With `Cn1cc(-c2cccc(-c3ncc(-c4nnc(C(=O)N5CC[C@@H](O)C5)s4)c(NC4CCCNC4)n3)c2)cn1` (stereo partly drawn) [Example 20, ((R)-3-Hydroxy-pyrrolidin-1-yl)-{5-[2-[3-(1-methyl-1H-pyrazol-4-yl)-phenyl]-4-(piperidin-3-ylamino)-pyrimidin-5-yl]-[1,3,4]thiadiazol-2-yl}-methanone Hydrochloride], the half-maximal inhibitory concentration (IC50) in test [1] is 100 to 1000 nM; in test [2], 1000 to 5000 nM; in test [3] (Homo sapiens, PBMC), 100 to 1000 nM.

`Cn1cc(-c2cccc(-c3ncc(-c4cnn(C)c4)c(NCC4(O)COC4)n3)c2)cn1` [Example 52]: the IC50 in test [1] is 100 to 1000 nM; in test [2], < 100 nM; in test [3] (Homo sapiens, PBMC) it was 1000 to 5000 nM.

As to `Cn1cc(-c2cccc(-c3ncc(-c4cnn(C)c4)c(NC[C@H]4CCCC[C@H]4O)n3)c2)cn1` [Example 225], the IC50 in test [1] is 100 to 1000 nM; in test [2], < 100 nM; in test [3] (Homo sapiens, PBMC) it was 100 to 1000 nM.

In the case of `Cn1cc(-c2cccc(-c3ncc(-c4cnn(C)c4)c(N[C@H]4CCC(=O)NC4)n3)c2)cn1` [Example 60], the half-inhibitory concentration (IC50) lay within 1000 to 5000 nM in test [1]; 100 to 1000 nM in test [2]; 1000 to 5000 nM in test [3] (Homo sapiens, PBMC).

As to `Cn1cc(-c2cccc(-c3ncc(-c4cnn(C)c4)c(N[C@H]4CC[C@@H](N)CC4)n3)c2)cn1` [Example 44], the IC50 in test [1] is 100 to 1000 nM; in test [2], < 100 nM; in test [3] (Homo sapiens, PBMC), 100 to 1000 nM.

Turning to `Cn1cc(-c2cccc(-c3ncc(-c4ccn(C)n4)c(N[C@@H]4CC[C@H](N)C4)n3)c2)cn1` (racemic) [Example 107], the IC50 in test [1] lay in the range of 100 to 1000 nM; in test [2] it was 100 to 1000 nM; in test [3] (Homo sapiens, PBMC), 100 to 1000 nM.

As for `Cn1cc(-c2cccc(-c3ncc(-c4cnn(C)c4)c(NCC(F)(F)F)n3)c2)cn1` [Example 271], the IC50 was 100 to 1000 nM in test [1]; < 100 nM in test [2]; 1000 to 5000 nM in test [3] (Homo sapiens, PBMC).

With `Cn1cc(-c2cccc(-c3ncc(-c4cnn(C)c4)c(N[C@H]4C[C@@H](NS(C)(=O)=O)C4)n3)c2)cn1` [Example 183], the IC50 in test [1] was 100 to 1000 nM; in test [2] it was < 100 nM; in test [3] (Homo sapiens, PBMC) it was 1000 to 5000 nM.

As to `Cn1cc(-c2cccc(-c3ncc(-c4cnn(C)c4)c(NCCS(N)(=O)=O)n3)c2)cn1` [Example 278], the IC50 in test [1] is < 100 nM; in test [2] it was < 100 nM; in test [3] (Homo sapiens, PBMC), 100 to 1000 nM.

On to `Cn1cc(-c2cccc(-c3ncc(-c4cnn(C)c4)c(NC4CCCCC4O)n3)c2)cn1` (stereo not drawn) [Example 244], for which the IC50 in test [1] was 100 to 1000 nM; in test [2] it was < 100 nM; in test [3] (Homo sapiens, PBMC), 100 to 1000 nM.

Turning to `Cn1cc(-c2cccc(-c3ncc(-c4ccn(C)n4)c(NCC4CC(F)(F)C4)n3)c2)cn1` [Example 81], the IC50 in test [1] was 1000 to 5000 nM; in test [2], 100 to 1000 nM; in test [3] (Homo sapiens, PBMC) it was > 5000 nM.

In the case of `Cn1cc(-c2cccc(-c3ncc(-c4cnn(C)c4)c(N[C@H]4CCCC[C@@H](O)[C@H]4O)n3)c2)cn1` [Example 288, (1R,2S,3S)-3-{5-(1-Methyl-1H-pyrazol-4-yl)-2-[3-(1-methyl-1H-pyrazol-4-yl)-phenyl]-pyrimidin-4-ylamino}-cycloheptane-1,2-diol], the concentration for half-maximal inhibition (IC50) in test [1], in test [2] and in test [3] was < 100 nM throughout.

For the molecule `Cc1nnc(-c2cnc(-c3cccc(-c4cnn(C)c4)c3)nc2NC2CCC(F)(F)CC2)s1` [Example 214], the IC50 in test [1] was > 5000 nM; in test [2], < 100 nM; in test [3] (Homo sapiens, PBMC), 1000 to 5000 nM.

In the case of `Cn1cc(-c2cccc(-c3ncc(-c4cnn(C)c4)c(NC45CCC(NS(C)(=O)=O)(CC4)CC5)n3)c2)cn1` [Example 187], the concentration for half-maximal inhibition (IC50) in test [1] is < 100 nM; in test [2] it was < 100 nM; in test [3] (Homo sapiens, PBMC), 100 to 1000 nM.

`Cn1cc(-c2cccc(-c3ncc(-c4cnn(C)c4)c(N4C[C@@H](N)CC(F)(F)C4)n3)c2)cn1` [Example 284, (S)-5,5-Difluoro-1-{5-(1-methyl-1H-pyrazol-4-yl)-2-[3-(1-methyl-1H-pyrazol-4-yl)-phenyl]-pyrimidin-4-yl}-piperidin-3-ylamine]: the IC50 is 1000 to 5000 nM in test [1]; < 100 nM in test [2]; 100 to 1000 nM in test [3] (Homo sapiens, PBMC).

Turning to `Cn1cc(-c2cccc(-c3ncc(-c4cnn(C)c4)c(NCCC4CCNC4)n3)c2)cn1` (stereo not drawn) [Example 85], the IC50 in test [1] is > 5000 nM; in test [2], 100 to 1000 nM; in test [3] (Homo sapiens, PBMC) it was 1000 to 5000 nM.

`Cn1cc(-c2cccc(-c3ncc(-c4cnn(C)c4)c(NCCCNS(C)(=O)=O)n3)c2)cn1` [Example 179]: the IC50 is 100 to 1000 nM in test [1]; < 100 nM in test [2]; 1000 to 5000 nM in test [3] (Homo sapiens, PBMC).

For the molecule `Cn1cc(-c2cccc(-c3ncc(-c4cnn(C)c4)c(N[C@H]4CC[C@H](C(=O)O)CC4)n3)c2)cn1` [Example 279], the half-inhibitory concentration (IC50) in test [1] is > 5000 nM; in test [2], 100 to 1000 nM; in test [3] (Homo sapiens, PBMC) it was > 5000 nM.

As for `Cn1cc(-c2cccc(-c3ncc(-c4cnn(C)c4)c(NCC4CCCOC4)n3)c2)cn1` (stereo not drawn) [Example 217], the 50% inhibitory concentration (IC50) in test [1] was 100 to 1000 nM; in test [2], < 100 nM; in test [3] (Homo sapiens, PBMC), 1000 to 5000 nM.

For the molecule `Cn1cc(-c2cccc(-c3ncc(-c4cnn(C)c4)c(NCC4CCCC(O)C4)n3)c2)cn1` (stereo not drawn) [Example 123], the half-maximal inhibitory concentration (IC50) was 100 to 1000 nM in test [1]; < 100 nM in test [2]; 100 to 1000 nM in test [3] (Homo sapiens, PBMC).

In the case of `Cn1cc(-c2cccc(-c3ncc(-c4ccn(C)n4)c(NCCN4CCS(=O)(=O)CC4)n3)c2)cn1` [Example 84], the half-inhibitory concentration (IC50) is 1000 to 5000 nM in test [1]; 100 to 1000 nM in test [2]; > 5000 nM in test [3] (Homo sapiens, PBMC).

Consider `Cn1cc(-c2cccc(-c3ncc(-c4ccn(C)n4)c(NC4CCCCNC4)n3)c2)cn1` (stereo not drawn) [Example 125], for which the IC50 is > 5000 nM in test [1]; 100 to 1000 nM in test [2]; 100 to 1000 nM in test [3] (Homo sapiens, PBMC).

As a reminder, the IC50 is the concentration that inhibits the measured activity by half.

The record behind these values is US9790221B2, “Heteroaryl compounds as IRAK inhibitors and uses thereof” (Merck Patent GmbH, priority 2014, dated 2017).
